Data from patent US20030008845A1, “Conjugated nonadecadienoic acid compositions” (priority 2001, published 2003).

Columns and labels:
[1] = system: 3T3-L1 adipocytes; experiment: cellular triacylglycerol in 3T3-L1 adipocytes; assay type: cell-based
Excerpt: (§1) CNA was synthesized from NA (purchased from Nu-Chek Corp., Elysian, Minn.), using the method described in Park, Y. et al., Lipids 34 (1999) 235-241 for producing CLA from linoleic acid; the CNA product synthesized contained 97.3% CNA (c10, t12, 33.4%; t11, c13, 32.9%; t10, t12/t11, t13, 23.4%; other isomers, 7.6%) with the remainder as unreacted NA. CLA was synthesized as described by Park, et al., supra; the CLA product synthesized contained 97.8% CLA (c9, t11/t9, c11, 45.7%; t10, c12, 47.6%; t9, t11/t10, t12, 1.7%; others, 2.8%) with the remainder as unreacted linoleic acid.
(§2) Cultured cells were treated with fatty acid-albumin complexes for 2 days, beginning at day 6 post-differentiation. Data were analyzed as log value with a two-way ANOVA using fatty acid (as treatments) and experiment. If the interaction between treatment and experiment was significant, this interaction was used as the error term. Additional experimental details were as described in Park, et al., supra.
(§3) Treatment values indicate the concentration of test materials (μM); all treatment groups included albumin at 100 μM. Reported values are mean±S.E. (n=8, collected from two independent experiments). […] CNA inhibited LPL activity in cultured 3T3-L1 adipocytes (FIG. 1A). In addition, CNA enhanced glycerol release (FIG. 1B) and reduced intracellular triacylglycerol (FIG. 1C) and glycerol (FIG. 1D) in the same cells. […]

[2] = system: 3T3-L1 adipocytes; experiment: cellular glycerol in 3T3-L1 adipocytes; assay type: cell-based
Excerpt: as §1, §2, §3

[3] = target: T1, lipoprotein lipase (LPL) (Mus musculus, UniProt P11152); experiment: heparin-releasable LPL activity in 3T3-L1 adipocytes; assay type: cell-based
T1 construct: endogenous in cells; host or cells: 3T3-L1 adipocytes
T1 sequence (P11152 28-474): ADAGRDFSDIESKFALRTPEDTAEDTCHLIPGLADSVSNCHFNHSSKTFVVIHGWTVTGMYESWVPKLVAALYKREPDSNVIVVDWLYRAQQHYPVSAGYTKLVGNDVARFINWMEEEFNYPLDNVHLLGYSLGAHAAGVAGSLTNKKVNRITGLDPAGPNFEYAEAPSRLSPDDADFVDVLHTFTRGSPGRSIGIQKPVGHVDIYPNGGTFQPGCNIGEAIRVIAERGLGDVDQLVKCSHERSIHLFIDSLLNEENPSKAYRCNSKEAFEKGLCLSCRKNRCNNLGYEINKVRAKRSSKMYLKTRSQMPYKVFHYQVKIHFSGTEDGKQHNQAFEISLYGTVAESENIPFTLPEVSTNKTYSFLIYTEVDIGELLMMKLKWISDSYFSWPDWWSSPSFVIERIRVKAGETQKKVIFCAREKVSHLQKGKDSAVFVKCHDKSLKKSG
Excerpt: as §1, §2, §3

[4] = system: 3T3-L1 adipocytes; experiment: glycerol release in 3T3-L1 adipocytes; assay type: cell-based
Excerpt: as §1, §2, §3

[5] = Effects of CNA and CLA on body composition (diet feeding); assay type: in vivo, mice; conditions: 0.3% in diet, 2 weeks; for Body weight gain per animal: female ICR mice
Excerpt: Female ICR mice (4-week-old) and semi-purified diets (TD94060, 99% basal mix) were purchased from Harlan Sprague Dawley (Madison, Wis.) and Harlan Teklad (Madison, Wis.), respectively. CLA was obtained from Natural Lipids Ltd AS, Hovdebygda, Norway; its composition was 88.7% CLA (c9, t11/t9, c11, 41.9%; t10, c12, 43.5%; t9, t11/10, t12, 1.5%; others, 1.8%) with the remainder as oleic acid, 5.6%; palmitic acid, 1.4%; and linoleic acid, 0.5%. CNA was kindly provided by the US Food and Drug Administration; it was 98.6% CNA (c10, t12, 42.3%; t11, c13, 48.0%; t10, t12/t11, t13, 5.1%; others, 3.2%) with the remainder as unreacted NA. CLA or CNA was added to diets at the expense of corn oil to maintain 5.5% fat. Diet was stored at −20° C. until use. Mice were housed individually in a windowless room with a 12-h light-dark cycle in strict accordance to guidelines established by the Research Animal Resources Center of University of Wisconsin-Madison. Diet and water, available ad libitum, were freshly provided three times per week.
After a 5 day adaptation period, mice were randomly separated into 3 groups and fed control diet, diet supplemented with 0.3% CLA, or diet supplemented with 0.3% CNA for 2 weeks. 0.3% of diet CLA is a sub-optimal dose for CLA's effects on body composition.
Results are mean±S.E. (n=6).

[6] = system: thromboxane B2; experiment: thromboxane B2 level in collagen-stimulated blood by ELISA; assay type: cell-based, guinea pigs; conditions: collagen-stimulated guinea pig blood, plasma ELISA (FIG. 4)
Procedure: (§4) Female guinea pigs and diets were purchased from Harlan Teklad (Madison, Wis). Whole Blood Aggregometer, collagen and ADP were purchased from Chrono-log Corp. (Havertown, Pa.). All ELISA kits were purchased from Cayman Chemical (Ann Arbor, Mich.).
(§5) Determination of thromboxane B2 level by ELISA: After the whole blood platelet aggregation, the collagen-stimulated blood was centrifuged for plasma and stored at −80° C. The plasma thromboxane level was determined by ELISA according to the manufacturer's instructions. Inhibitory effects on ovine COX-1 and COX-2: COX-1 or COX-2, heme and reaction buffer were pre-incubated under 37° C. CNA or DMSO (control) was added to the system and co-incubated for 5 minutes. Arachidonic acid was added and the reaction was maintained at 37° C. for 2 minutes. The catalysis reaction was terminated by adding HCL. Total prostanoids were measured by ELISA according to manufacturer's instructions.

[7] = system: lipopolysaccharide-stimulated macrophages; experiment: PGE2 released from LPS-stimulated macrophages; assay type: cell-based; conditions: macrophages incubated 24 hours, then 100 ng/ml LPS 8 hours; about 3000 pg/ml without CNA (FIG. 7)
Procedure: As a further indication of the ability of CNA to inhibit COX enzymes, FIG. 7 depicts the inhibition of PGE2 released from stimulated macrophages in the presence of varying amounts of CNA. Confluent macrophages were incubated with CNA or linoleic acid (LA; control) at the concentrations shown for 24 hours in 0.5% fetal bovine serum then were stimulated with 100 ng/ml lipopolysaccharide (LPS) for 8 hours. The level of PGE2 in the medium was determined by ELISA assay.

[8] = target: T2, ovine cyclooxygenase-1 (Ovis aries, UniProt P05979); experiment: ovine COX-1 inhibition (total prostanoids by ELISA); assay type: biochemical; conditions: pure ovine COX-1, 5 min co-incubation, 37° C. (FIG. 5)
T2 sequence (P05979 25-600): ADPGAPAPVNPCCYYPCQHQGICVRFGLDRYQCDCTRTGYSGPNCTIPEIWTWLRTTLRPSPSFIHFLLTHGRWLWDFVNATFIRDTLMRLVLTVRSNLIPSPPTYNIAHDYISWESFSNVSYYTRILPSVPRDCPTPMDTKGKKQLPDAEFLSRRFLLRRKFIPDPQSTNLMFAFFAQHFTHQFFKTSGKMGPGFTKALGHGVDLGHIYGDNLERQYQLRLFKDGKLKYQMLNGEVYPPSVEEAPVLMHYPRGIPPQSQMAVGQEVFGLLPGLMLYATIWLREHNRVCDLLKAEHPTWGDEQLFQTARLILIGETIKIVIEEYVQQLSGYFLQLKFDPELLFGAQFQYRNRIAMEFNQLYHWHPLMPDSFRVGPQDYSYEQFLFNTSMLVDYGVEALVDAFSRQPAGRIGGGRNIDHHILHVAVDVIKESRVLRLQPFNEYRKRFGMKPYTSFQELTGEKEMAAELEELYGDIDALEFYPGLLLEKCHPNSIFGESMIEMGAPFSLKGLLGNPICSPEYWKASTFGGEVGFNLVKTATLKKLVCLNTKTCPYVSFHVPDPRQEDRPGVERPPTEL
Procedure: as §5

[9] = system: ADP-induced whole blood platelet aggregation; experiment: ADP-induced whole blood platelet aggregation; assay type: cell-based, guinea pigs; conditions: guinea pig heparinized whole blood, ADP 10 μM, 2 min preincubation (FIG. 3)
Procedure: as §4
(§6) Whole blood platelet aggregation: Guinea Pigs were anesthetized with a combination of ketamine (35 mg/kg) and xylazine (10 mg/kg) by subcutaneous administration. Heparinized blood (20 unit/ml) was obtained by cardiac puncture. Within 5-10 minutes, the blood (1.0 ml) was preheated at 37° C. and then incubated with free fatty acid or DMSO (control) for 2 minutes. Collagen (4 μg/ml) or ADP (10 μM) was next added to the blood to start the platelet aggregation process. Platelet aggregation was measured using an Aggregometer.

[10] = system: collagen-induced whole blood platelet aggregation; experiment: collagen-induced whole blood platelet aggregation; assay type: cell-based, guinea pigs; conditions: guinea pig heparinized whole blood, collagen 4 μg/ml, 2 min preincubation (FIG. 2)
Procedure: as §4, §6

[11] = target: T3, ovine cyclooxygenase-2 (Ovis aries, UniProt P79208); experiment: ovine COX-2 inhibition (total prostanoids by ELISA); assay type: biochemical; conditions: pure ovine COX-2, 5 min co-incubation, 37° C. (FIG. 6)
T3 sequence (P79208 17-603): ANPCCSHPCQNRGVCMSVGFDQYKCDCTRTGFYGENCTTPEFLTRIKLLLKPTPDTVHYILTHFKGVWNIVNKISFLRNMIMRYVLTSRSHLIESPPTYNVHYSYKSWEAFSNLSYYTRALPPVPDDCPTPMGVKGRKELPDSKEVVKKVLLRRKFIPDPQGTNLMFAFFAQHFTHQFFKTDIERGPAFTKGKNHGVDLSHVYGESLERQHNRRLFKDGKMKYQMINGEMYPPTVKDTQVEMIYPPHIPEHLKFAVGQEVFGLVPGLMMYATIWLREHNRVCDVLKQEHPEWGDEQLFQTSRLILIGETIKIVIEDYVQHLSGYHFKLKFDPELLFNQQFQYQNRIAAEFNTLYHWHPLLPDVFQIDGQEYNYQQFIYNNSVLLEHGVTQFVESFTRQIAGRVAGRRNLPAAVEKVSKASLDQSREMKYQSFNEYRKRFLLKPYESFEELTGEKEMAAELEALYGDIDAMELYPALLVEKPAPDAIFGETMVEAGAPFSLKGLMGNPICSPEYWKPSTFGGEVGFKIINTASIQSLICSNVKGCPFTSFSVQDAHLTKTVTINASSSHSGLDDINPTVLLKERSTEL
Procedure: as §5

Row | LPL activity ([3]; 3T3-L1 adipocytes, at 50 or 100 μM) | COX-1 activity [8] | LPL activity ([3]; cultured 3T3-L1 adipocytes, fatty acid-albumin complexes 2 days, albumin 100 μM (FIG. 1A)) | COX-2 activity [11] | Molecule | intracellular triacylglycerol ([1]; at 50 or 100 μM) | intracellular glycerol ([2]; at 50 or 100 μM) | glycerol release ([4]; at 50 or 100 μM) | Body weight gain per animal [5] | intracellular triacylglycerol ([1]; 2 days, albumin 100 μM (FIG. 1C)) | thromboxane B2 level [6] | level of PGE2 in the medium [7] | intracellular glycerol ([2]; 2 days, albumin 100 μM (FIG. 1D)) | ADP-stimulated platelet aggregation [9] | collagen-stimulated platelet aggregation [10] | amount of whole body water, protein and ash ([5]; mice, in words) | body fat mass gain ([5]; mice, in words) | glycerol release ([4]; 2 days, albumin 100 μM (FIG. 1B))
1 | ineffective | – | – | – | CCCCC/C=C\C/C=C\CCCCCCCCC(=O)O [NA, c10, c13 nonadecadienoic acid, reference compound] | ineffective | ineffective | ineffective | – | – | – | – | – | – | – | – | – | –
2 | – | – | – | – | Conjugated linoleic acid [CLA, reference compound] | – | – | – | 1.3 g | – | – | – | – | – | – | – | – | –
3 | – | inhibited | inhibited | inhibited | conjugated nonadecadienoic acid [CNA] | – | – | – | 0.2 g | reduced | reduced | less than 1000 pg/ml | reduced | inhibited | inhibited | enhanced | reduced | enhanced
